Source: patent US20060228752A1, “Genetic polymorphisms in the preprotachykinin gene” (priority 2002, published 2006)

What was measured:
Format in all cases: in vivo, human
[1] = system: apomorphine-induced vomiting and retching; assay: Emesis test response by NKNA position 41172 genotype (SAD and MAD participants); conditions: plasma concentration >20 ng/ml; responder = ≦3 retches and vomits
Description: FIG. 4: 2×2 Contingency table for 29 position 41172 genotype test results with concentration before emesis test >20 ng/ml 2-(3,5-bis-trifluoromethyl-phenyl)-N-methyl-N-(6-morpholin-4-yl-4-o-tolyl-pyridin-3-yl)-isobutyramide. Effect=yes: number of vomits+retches≦3. Fisher's Exact Test (two-sided): p=0.033. The genotypes of the subjects were classified according to the following categories: 0-2 are allele 2 (nucleotide G) homozygotes (two copies of allele 2, no copies of allele 1); not 0-2 include allelel (nucleotide A) homozygotes 2-0 (two copies of allele 1, no copies of allele 2) and heterozygotes 1-1 (one copy of allele 1 and one copy of allele 2).
Three genetic markers were selected based on the results from polymorphism discovery in the NKNA gene. Samples were genotyped for these single nucleotide polymorphisms by a kinetic PCR method described by Germer et al., Genome Res. (2000), 10, 258-266 with the modification of using single sample for each reaction instead of pooling samples. This method allows discrimination of single nucleotide polymorphisms without the use of fluorescent probes.
All participants of the SAD and MAD were tested for the single nucleotide polymorphism at position 41172 of the NKNA gene as defined by position in FIG. 2.

[2] = system: apomorphine-induced vomiting and retching; assay: Emesis test (apomorphine challenge), Multiple Ascending Dose study (MAD); conditions: 14 once daily doses, test on day 14, 6 or 24 hrs after last dose
Description: (§1) The described emesis test was performed in two studies. A Single Ascending Dose study (SAD) and a Multiple Ascending Dose study (MAD). In the SAD the emesis test was performed 6 and/or 24 hrs after intake of 2-(3,5-bis-trifluoromethyl-phenyl)-N-methyl-N-(6-morpholin-4-yl-4-o-tolyl-pyridin-3-yl)-isobutyramide. In the MAD the emesis test was performed after 14 once daily doses, 6 or 24 hrs after the last dose. Subjects were dosed for 14 days with 2-(3,5-bis-trifluoromethyl-phenyl)-N-methyl-N-(6-morpholin-4-yl-4-o-tolyl-pyridin-3-yl)-isobutyramide. On day 14 the test was carried out as described in the SAD.

[3] = system: apomorphine-induced vomiting and retching; assay: Emesis test (apomorphine challenge), Single Ascending Dose study (SAD)
Description: as §1, with “dose.” for “dose. Subjects were dosed for 14 days with 2-(3,5-bis-trifluoromethyl-phenyl)-N-methyl-N-(6-morpholin-4-yl-4-o-tolyl-pyridin-3-yl)-isobutyramide. On day 14 the test was carried out as described in the SAD.”
In the SAD on study day 1 doses of 5, 10, 20, 40, 80, 160, 230 and 400 mg 2-(3,5-bis-trifluoromethyl-phenyl)-N-methyl-N-(6-morpholin-4-yl-4-o-tolyl-pyridin-3-yl)-isobutyramide were administered to the subjects orally as a drinking emulsion. At either 6 or 24 hours after the administration of the drug the subjects received a subcutaneous injection of 50 μg/kg of apomorphine in the lower part of the abdomen. The time of apomorphine administration was recorded. The subjects were brought into an upright sitting position immediately after the injection. They remained in this position until vomiting occurred or for at least 1 hour after the apomorphine injection. Vomiting is defined as regurgitation of approximately 25 ml or more of gastric contents. A retch is defined as a regurgitation producing less or no gastric content.
Nausea and/or vomiting was expected to occur on average within 10 minutes after the injection. […] The number of vomits and retches were recorded. […]

For `Cc1ccccc1-c1cc(N2CCOCC2)ncc1N(C)C(=O)C(C)(C)c1cc(C(F)(F)F)cc(C(F)(F)F)c1` [2-(3,5-bis-trifluoromethyl-phenyl)-N-methyl-N-(6-morpholin-4-yl-4-o-tolyl-pyridin-3-yl)-isobutyramide], the “response to treatment of subjects with G at position 41172 of the NKNA gene versus subjects without it or heterozygous” value [1] was “responding with a higher efficacy”, the “emesis test result in MAD” value [2] was “consistent with the SAD” and the “average number of retches and vomits at the plateau reached with the blockade” value ([3]; apomorphine 50 μg/kg s.c. 6 or 24 hrs after oral drug) was 3. For the same compound, the “plasma concentration at which efficacious levels are reached (minimal concentration to achieve efficacy)” value ([3]; oral drinking emulsion 5-400 mg, apomorphine 50 μg/kg s.c. 6 or 24 hrs after drug, efficacy = plateau of 3 retches and vomits) was 20 ng/mL.
